The values that follow come from patent US20090233307A1, “METHODS FOR DETECTION OF SINGLE STRAND BREAKS IN DNA” (The University of North Carolina at Chapel Hill, priority 2008, published 2009).

One data set has as its system Pol β null cells. Description: Alkaline gel electrophoresis with or without OTX of DNA from exposed Pol β null cells. The settings on record: 1 mM MMS, 1-4 hours. Type of data set: cell-based, chicken. The method, then: DT40 and Pol β null cells were seeded into 100 cm dishes and allowed to divide overnight to reach the density of 1×10^6 cells/mL. Cells were exposed to a continuous treatment of 1 mM methyl methanesulfonate (MMS; Aldrich) for up to 4 hours. Control cells received 1× phosphate buffered saline (PBS) for 0.5 hour. After incubation, cells were harvested, washed with chilled 1× PBS, pelleted, and stored at −80° C. until DNA isolation. Using this protocol, DT40 cells were also incubated in the absence of chemical to obtain a stock of untreated DNA.
DNA was extracted using a PureGene® DNA extraction kit (Gentra Systems. Inc.) with modifications as described previously (Nakamura et al., J. Biol. Chem., 275, 5323-5328 (2000)).
An alkaline gel electrophoresis protocol (AGE) (Drouin et al., in: Technologies for Detection of DNA Damage and Mutations (G. P. Pfeifer, ed.). Plenum Press, New York, N.Y., pp. 37-43 (1996)) with modifications was used to assess SSBs and ALSs in DNA from exposed cells. The 0.7% agarose gel was prepared in gel buffer (50 mM NaCl, 1 mM EDTA, pH 7) and deionized water. After forming, the gel was soaked in mild alkaline running buffer (30 mM NaOH, 1 mM EDTA, pH 12.4) for at least 30 minutes. Equal amounts of DNA (3-5 μg) were incubated for 1 hour at 37° C. in the presence or absence of 30 mM OTX (Aldrich) in 50 mM HEPES buffer. […]

Data set [1] has as its system Chinese hamster ovary (CHO) AA8 cells. Put plainly: OTX-coupled comet assay. Type of data set: cell-based. The settings on record: 10 minute exposure to 1 mM MMS, CHO AA8. The method, then:
Chinese hamster ovary (CHO) AA8 cells were seeded at a concentration 0.5×10^6 cell/mL into several 10 cm culture dishes with 10 mL of MEM-α media (Gibco) supplemented with 10% fetal bovine serum (heat inactivated; Sigma), 100 μg/mL penicillin, and 100 μg/mL streptomycin. These were allowed to grow for 48 hours at 37° C. and 5% CO2. Culture dishes were about 80-85% confluent at harvest.
Before cells were harvested for use in the comet assay, the lysis solution (2.5 M NaCl, 100 mM Na2-EDTA, 10 mM Trizma, pH 10) was completed with the addition of 10% (v/v) DMSO and 1% (v/v) Triton X-100, mixed thoroughly, and refrigerated at 4° C. A 0.5% solution of low melting point agarose (LMPA) was also prepared and allowed to equilibrate to 37° C. in a water bath. Partially frosted microscope slides, pre-coated several days before with 50 μL of 1% normal melting point agarose (NMPA), were labeled and set aside.
Prior to cell harvest, the media was removed and each dish was washed with 10 mL of 1×PBS. An additional 2 mL of 1×PBS was added to each dish and the cells were harvested using a rubber policeman. Harvested cells were combined into 15 mL centrifuged tubes and gently mixed by pipetting to obtain a homogenous cell sample. The cell count was obtained using a hemacytometer. The volume of cell sample needed to obtain 11,000 cells per slide to be prepared was added to a new 15 mL centrifuge tube and centrifuged for 5 minutes at 1,100 RPM. The supernatant was removed and the cell pellet resuspended in 1×PBS at a volume equal to 10 μL per slide to be prepared (e.g. 5 slides×10 μL per slide=50 μL 1×PBS total).
For each slide to be prepared, 10 μL of the cell sample was added to a 1.5 mL centrifuge tube. The cell layer of the slide was created by first gently mixing 100 μL of the 0.5% LMPA with the 10 μL of cell sample in the tube. This mixture was then added to a pre-coated slide and a coverslip placed onto the slide to create a thin layer of the cell mixture. Slides with cell layers were then refrigerated at 4° C. for 15 minutes to solidify the gel. After this incubation, the initial coverslips were removed and an additional 150 μL of 0.5% LMPA was added to each slide. A fresh coverslip was placed onto each slide to create a thin top layer and the slides were refrigerated for another 15 minutes. After removing the coverslip, completed slides that were receiving MMS treatment were placed in a slide chamber containing warmed MEM-α media with 1 mM MMS for 10 minutes. The slide chamber was kept warm by placing it within an incubator held at 37° C. After the 10 minutes, the slides were washed with 1×PBS for 5 minutes at room temperature and then transferred to slide chambers containing the chilled lysis solution. […]

Take `COS(C)(=O)=O` [MMS, methyl methanesulfonate]: in the data set on Pol β null cells, the “SSB accumulation (DNA migration) by OTX-AGE” value was “clear time-dependent increase in DNA migration”. The “tail moment compared to the untreated control (no MMS)” value in data set [1] is given as “significant difference in tail moment”.
